Test results from article PMC10014601, “The cyclic peptide G4CP2 enables the modulation of galactose metabolism in yeast by interfering with GAL4 transcriptional activity” (Frontiers in Molecular Biosciences, 2023).
Where two headings read alike, the source gives them in different places. Where a SMILES comes first, the peptide text is derived from it. [ ]: non-standard residue; d: D form. βAla = NCCC(=O)O

Experiments:
[1] = PAMPA-BBB literature value, cited from earlier work
Text: Supplement Table3.XLSX, sheet "Primer list" | column: Pe,lit

in vitro = conditions: for Papp / Papp at 18 h: pH 7.4
Description: A 96-well acceptor microplate (PTFE, Millipore) was prepared by filled each well with 300 μL of PBS/DMSO (95:5, pH = 7.4), while the donor microplate artificial membrane (PVDF membrane, pore size […], Millipore) was carefully coated with 5 μL of PBL dissolved in dodecane ([…]). Each compound was dissolved in DMSO, diluted with PBS/DMSO (95:5, pH = 7.4) to a final concentration of 40–100 μM in the donor well, filtered with a Millex filter, and applied to the donor microplate wells (200 μL). Next, the donor plate was carefully placed on top of the acceptor plate, thereby bringing the artificial membrane in contact with the buffer solution underneath. The donor well was covered with a lid, and the whole system was left undisturbed overnight (18 h) at 25°C in a container sealed with damp paper towels to prevent evaporation. After incubation, the donor microplate was carefully removed, and UV-vis spectroscopy was used to determine the amounts of the tested compounds in the acceptor and donor microplate wells, respectively. Each sample was evaluated at five wavelengths in four wells during three separate runs; accordingly, all data are presented as mean values with relevant standard deviation. The permeability values (Pe,exp, cm/s) were calculated according to the following expression: Pe,exp = {−VdVa/[(Vd + Va)At]ln–1—da/deq}, in which Vd and Va represent the volumes of the donor and the acceptor wells, respectively, A is the surface of the artificial membrane, t is the permeation time, whilst da and deq are the absorbance measured in the acceptor well and the theoretical equilibrium absorbance value, respectively. After the PAMPA-BBB test for all compounds was completed, the integrity of the lipid membrane was evaluated based on the transport of Lucifer Yellow (Sigma-Aldrich)—a fluorescent molecule with very limited membrane permeability rejected by a uniform and integral lipid membrane performed according to the Millipore protocol lit. n. PC1545EN00 (https://www.sigmaaldrich.com/technical-documents/protocols/biology/membrane-integrity-test-for-lipid-pampa-artificial-membranes.html).

GAL4 = molecular target: T1, GAL4 (Saccharomyces cerevisiae, UniProt P04386); experiment: pGAL1::YFP reporter fluorescence (YFP/OD600), BY4741 treated with chemically synthesized peptides (feeding); type: cell-based; conditions: 100 µM peptide; 1.00 and 10.00 Gal/Glu ratios; 15.5 h
T1 construct: endogenous in cells; host or cells: S. cerevisiae BY4741 (S288C derivative) with integrated GAL1p-YFP cassette
Description: The fluorescence signal of BY4741 pGAL1::YFP reporter strain was measured using a Varioskan LUX multimode microplate reader (ThermoFisher Scientific). Overnight cultures were pelleted, washed twice in water and OD600 normalized for the different cultures. An equal volume of normalized cultures was pipetted in each well of a 96-well plate containing different galactose/glucose (Gal/Glu) ratios. When treating the cells with chemically synthesized G4CP2, a 10 mM stock solution (100% DMSO) was diluted to a working concentration of 100 µM in each well designated for treatment. Fluorescence and OD600 measurements were performed by incubating plates at 28°C, shaking 2 min at 180 rpm, before each measurement.
To test the effects of exogenous administration of chemically synthetized G4CP2 on pGAL1::YFP biosensor, a random-selected control peptide (CP11) was used. […] G4CP2 and CP11 were used at 100 µM to treat BY4741 pGAL1::YFP yeast cells grown in 96-well plates under 1.00 and 10.00 Gal/Glu ratios. YFP/OD600 values were again recorded for 15.5 h (Figure 4D).

[2] = marked a (or a,b; then also Kerns et al., 2004), ref Di et al., 2003
[3] = marked b, ref Kerns et al., 2004

Cc1nnc2n1-c1ccc(Cl)cc1C(c1ccccc1)=NC2 [Alprazolam]
Pe,lit [1, 2]: 5.4a 10-6 cm/s | Papp (in vitro; pig, PAMPA): 5.1 ± 0.4 ×10⁻⁶ cm/s

CC(C)NCC(O)COc1ccc(CC(N)=O)cc1 (stereo not shown) [Atenolol]
Papp at 18 h (in vitro; pig, PAMPA): 0.74 ± 0.04 ×10⁻⁶ cm/s

C/C=C/C[C@@H](C)[C@@H](O)[C@H]1C(=O)N[C@@H](C(C)C)C(=O)N(C)CC(=O)N(C)[C@@H](CC(C)C)C(=O)N[C@@H](C(C)C)C(=O)N(C)[C@@H](CC(C)C)C(=O)N[C@@H](C)C(=O)N[C@H](C)C(=O)N(C)[C@@H](CC(C)C)C(=O)N(C)[C@@H](CC(C)C)C(=O)N(C)[C@@H](C(C)C)C(=O)N1C [CSD]
Papp (in vitro; PAMPA): 0.93 ± 0.5 ×10⁻⁶ cm/s

Cn1c(=O)c2c(ncn2C)n(C)c1=O [Caffeine]
Pe,exp (in vitro; PAMPA-BBB validation, porcine brain lipid in dodecane (20 mg/L), PBS/DMSO 95:5 pH 7.4, 40–100 μM donor, 18 h, 25°C, UV-vis, mean ± SD, four wells, three runs): 1.7 ± 0.2 10-6 cm/s

CCN(CC)CCCC(C)Nc1ccnc2cc(Cl)ccc12 (stereo not shown) [Chloroquine]
Papp at 18 h (in vitro; pig, PAMPA): 2.4 ± 0.1 ×10⁻⁶ cm/s

CN(C)CCCN1c2ccccc2Sc2ccc(Cl)cc21 [Chlorpromazine]
Papp at 18 h (in vitro; pig, PAMPA): 6.8 ± 0.3 ×10⁻⁶ cm/s

CN1C(=O)CN=C(c2ccccc2)c2cc(Cl)ccc21 [Diazepam]
Papp (in vitro; pig, PAMPA): 13.7 ± 0.8 ×10⁻⁶ cm/s

OCCN(CCO)c1nc(N2CCCCC2)c2nc(N(CCO)CCO)nc(N3CCCCC3)c2n1 [Dipyridamole]
Pe,lit [1, 3]: 3.5b 10-6 cm/s | Papp at 18 h (in vitro; pig, PAMPA): 3.8 ± 0.4 ×10⁻⁶ cm/s

CC(C)[C@H]1C(=O)O[C@H](C(C)C)C(=O)N(C)[C@@H](C(C)C)C(=O)O[C@H](C(C)C)C(=O)N(C)[C@@H](C(C)C)C(=O)O[C@H](C(C)C)C(=O)N1C [EnB]
Papp at 18 h (in vitro; PAMPA): 8.3 ± 0.7 ×10⁻⁶ cm/s

CCn1cc(C(=O)O)c(=O)c2cc(F)c(N3CCNCC3)nc21 [Enoxacin]
Papp at 18 h (in vitro; pig, PAMPA): 0.98 ± 0.3 ×10⁻⁶ cm/s

CSCC[C@@H]1NC(=O)[C@H](CC(=O)O)NC(=O)[C@H](Cc2ccccc2)NC(=O)[C@H](Cc2ccccc2)NC(=O)[C@H](Cc2ccc(O)cc2)NC(=O)[C@H](CCCNC(=N)N)NC(=O)CCNC(=O)[C@H](Cc2ccc(O)cc2)NC(=O)[C@H](Cc2c[nH]c3ccccc23)NC1=O [G4CP2] (cyclo(DMWY[βAla]RYFF))
YFP fluorescence signal over time (YFP/OD600) (GAL4): strongly attenuated | passive permeability classification (in vitro; PAMPA): moderate-to-good | Papp (in vitro; PAMPA): 3.3 ± 0.4 ×10⁻⁶ cm/s

CCn1cc(C(=O)O)c(=O)c2cc(F)c(N3CCNC(C)C3)c(F)c21 (stereo not shown) [Lomefloxacin]
Papp at 18 h (in vitro; pig, PAMPA): 1.4 ± 0.1 ×10⁻⁶ cm/s

CCn1cc(C(=O)O)c(=O)c2cc(F)c(N3CCNCC3)cc21 [Norfloxacin]
Papp at 18 h (in vitro; pig, PAMPA): 0.15 ± 0.01 ×10⁻⁶ cm/s

O=C1Nc2ccc(Cl)cc2C(c2ccccc2)=NC1O (stereo not shown) [Oxazepam]
Pe,lit [1, 2]: 10a 10-6 cm/s

CN1C(C(=O)Nc2ccccn2)=C(O)c2ccccc2S1(=O)=O [Piroxicam]
Pe,lit [1, 2]: 2.5a 10-6 cm/s

CC(=O)[C@H]1CC[C@H]2[C@@H]3CCC4=CC(=O)CC[C@]4(C)[C@H]3CC[C@]12C [Progesterone]
Papp at 18 h (in vitro; pig, PAMPA): 10.9 ± 0.7 ×10⁻⁶ cm/s

COc1cc(Cc2cnc(N)nc2N)cc(OC)c1OC [Trimethoprim]
Pe,lit [1, 3]: 2.2b 10-6 cm/s | Papp at 18 h (in vitro; pig, PAMPA): 2.5 ± 0.2 ×10⁻⁶ cm/s
